Measurements from patent publication US20240246934A1, “QUINAZOLINE-BASED COMPOUND, COMPOSITION, AND APPLICATION OF QUINAZOLINE-BASED COMPOUND” (BEIJING SCITECH-MQ PHARMACEUTICALS LIMITED, priority 2021, published 2024).
Where two headings read alike, the source gives them in different places.

Experiments:
[1] = system: Ba/F3 ERBB2 A775_G776insYVMA; assay: Efficacy in nude mouse tumor-bearing model of Ba/F3 ERBB2 A775_G776insYVMA; assay type: in vivo, BALB/c nude mice; conditions: 30 mg/kg
Experimental: In this assay, some compounds of the application were orally administered to a nude mouse tumor-bearing model of Ba/F3 ERBB2 A775_G776insYVMA to study the effect of the compounds of the application on tumor growth.
Preparation of the assay compound: an appropriate weight of the compound to be assayed was weighed, and completely dissolved in an appropriate volume of vehicle (DMSO). The mixture was vortexed or sonicated. Then an appropriate amount of Solutol was added and mixed well. Finally, sterilized drinking water was added and the mixture was mixed by stirring or vortexing to obtain a homogeneous solution or suspension.
Method: All the assays were authorized and agreed by the Animal Welfare Committee. Ba/F3 ERBB2 A775_G776insYVMA in a logarithmic growth period was inoculated subcutaneously into the right back of immunodeficient nude mice (BALB/c nude, female, 6-7 weeks of age, body weight 18±2 g) with 4×10^6 cells/rat. After the tumor grew to 150-200 mm^3, the animals were randomly divided into a treatment group and a control group. For the treatment group, a solution of each assay compound was given, and for the control group, a vehicle solution without the assay compound was given. Both of the treatment group and the control group were administered once a day for about 2 weeks. The dose of each assay article was 30 mg/kg (in terms of effective compound concentration), and the assay compounds were all prepared freshly for use. During the assay, the diameter of loaded tumors was measured twice a week, and the mice were weighed at the same time. The tumor volume (TV) was calculated by the formula: TV=½×a×b^2, where a and b denote length and width, respectively. Relative tumor volume (RTV) was calculated based on the measured results by the formula: RTV=Vt/V0, where V0 is the tumor volume measured at grouping and administration and Vt is the tumor volume at each measurement. The evaluation index of antitumor activity was the relative tumor proliferation rate T/C (%) calculated by the formula: T/C (%)=(TRTV/CRTV)×100%, TRTV: RTV of the administration group; CRTV: RTV of the control group. T and C denote the average tumor volume at a certain time point in the administration group and the control group, respectively.

EGFR^WT kinase = EGFR^WT kinase (Homo sapiens, UniProt P00533); assay: EGFR^WT kinase assay (ULight/PT66 TR-FRET); assay type: biochemical
Experimental: (§1) Preparation of compound solution: The assay compound was dissolved in DMSO to form a 10 mM stock solution. Prior to use, the compound was diluted to 0.25 mM in DMSO (100 times the final concentration of the diluent) and then subjected to a 3-fold concentration gradient dilution to obtain a total of 11 concentrations. The solution was diluted with buffer to a diluent with 4× the final concentration when the compound was added.
(§2) EGFR^WT kinase assay: buffer was prepared, and 3.48 nM 4×EGFR kinase solution, 600 μM 4×ATP solution, and 400 nM 4×ULight™-labeled JAK-1 (Try1023) Peptide substrate solution were prepared using the buffer. After the preparation was completed, the enzyme was mixed with different concentrations of compounds pre-prepared by dilution, and the mixture was left to stand at room temperature for 5 min. Each concentration was performed in duplicate. The corresponding substrate and ATP were added and the mixture was reacted at room temperature for 120 minutes (with negative and positive controls). After completion of the reaction, PT66 detection antibody was added. The mixture was incubated at room temperature for 60 minutes, and then detected by Envision.
(§3) Compound concentrations and corresponding inhibition rates were input into GraphPad Prism for processing to calculate IC50 values.

[2] = Pharmacokinetics in SD rats, single intravenous injection and oral administration; assay type: in vivo, SD rat; conditions: for AUC(0-inf) / AUC(0-t) / Vd / half-life / bioavailability / Cmax / Tmax: SD, rat, whole blood; for bioavailability: PO 10 mg/kg vs IV 3 mg/kg, read-out: F % (bioavailability)
Experimental: In this assay, the pharmacokinetic characteristics of the compounds of the present application were assayed after administration of some of the compounds of the present application to SD rats by single oral administration and intravenous injection. 1. […] The mixture was stirred, vortexed and/or sonicated. Once a solution was obtained, the vehicle was gradually added to a final volume to reach the target concentration. The solution was vortexed, and sonicated to obtain a homogeneous solution. The solution was filtered through a 0.22 μm PVDF membrane. 2. […] The mixture was stirred, vortexed and/or sonicated. Once a solution was obtained, the vehicle was gradually added to a final volume to reach the target concentration. The solution was vortexed, and sonicated to obtain a homogeneous solution. […] Meanwhile, the IV group was not fasted and the PO group was fasted overnight (>12 hrs) and given food 2 hrs after drug administration. All animals had free access to water. The dosing regimen and pharmacokinetic sampling regimen are given in Table 6 and Table 7 below, respectively. […] Rats were administered according to the above regimen, and blood and brain tissue samples were collected and processed at predetermined time points (collection and processing were performed according to conventional methods in the art). […] The supernatant was diluted 2-fold with ultra-pure water, and the samples were analyzed by LC/MS. Pharmacokinetic parameters was calculated using WinNonlin software. The following pharmacokinetic parameters was calculated from the plasma drug concentration-time data: CL (clearance); Vd (apparent volume of distribution); T1/2 (elimination half-life time); Cmax (peak concentration); Tmax (time to peak); AUC (area under plasma drug concentration-time curve); MRT (mean retention time); F % (bioavailability).

HER2 kinase = target: T1, HER2 kinase (Homo sapiens, UniProt P04626); assay: HER2 kinase assay (ULight/PT66 TR-FRET); assay type: biochemical
T1 construct: purchased Carna Biosciences 08-016
Experimental: as §1
as §2, with “HER2” for “EGFR^WT”, “40” for “3.48”, “4×Her2” for “4×EGFR”, “40” for “600”, “Ploy GT” for “JAK-1 (Try1023)”
as §3

[3] = target: Ba/F3 HER2 A775_G776insYVMA cells (Homo sapiens, UniProt P04626, DUP772-775, cells depend on it); assay: Inhibition of cell proliferation, CTG method, Ba/F3 HER2 A775_G776insYVMA; assay type: cell-based; conditions: 72 hours, read-out: Ba/F3 HER2 A775-G776insYVMA IC50
Excerpt: The present application examined the in vitro anti-proliferative activity of the compounds of the present disclosure against in vitro cultured BT474, NCI-N87, Ba/F3-EGFR-VIII and Ba/F3 HER2 A775_G776insYVMA and Ba/F3 EGFR D770_N771insSVD cell lines by CTG method.
Cell lines: BT474 (from the cell bank of Chinese Academy of Sciences), NCI-N87 (from ATCC), Ba/F3-EGFR-VIII, Ba/F3 HER2 A775_G776insYVMA and Ba/F3 EGFR D770_N771insSVD (all from KYinno Biotechnology (Beijing) Co., Ltd.); all of the above cells were cultured with RPMI1640 medium containing 10% fetal bovine serum, 100 U/mL penicillin, and 100 μg/mL streptomycin in the culture process.
1. The assay compound was dissolved with DMSO to form a stock solution and a gradient dilution was performed, followed by dilution with the corresponding medium to obtain a solution with 5-fold working concentration.
2. Cells in logarithmic growth phase were adjusted to specific cell densities by dilution with culture medium, and 80 μL of cell suspension was added to a 96-well plate, such that plating densities of cells of BT474, NCI-N87, Ba/F3-EGFR-VIII, Ba/F3 HER2 A775_G776insYVMA and Ba/F3 EGFR D770_N771insSVD were all 3000 cells/well. The cells of Ba/F3-EGFR-VIII, Ba/F3 HER2 A775_G776insYVMA and Ba/F3 EGFR D770_N771insSVD were used directly in the next step (treatment with compound), whereas the BT474 and NCI-N87 needed to be cultured overnight in a 37° C., 5% carbon dioxide gas incubator to adhere to the wall, and then treated with compounds.
3. […] The highest concentration of the assayed compound was 10 μM, 4-fold serial dilution, a total of 9 concentrations, and duplicate wells. A control group without compound was also set up.
4. The cells were cultured for another 72 hours, and then cell viability was detected by CTG assay kit. Signal values were read with a multifunctional plate reader (Perkin Elmer). GraphPad Prism software was used to create a dose-response curve and IC50 was calculated.

[4] = Brain tissue and whole blood concentration in SD rats after oral administration; assay type: in vivo; conditions: rat, PO 10 mg/kg, 2 h after administration
Experimental: In this assay, the pharmacokinetic characteristics of the compounds of the present application were assayed after administration of some of the compounds of the present application to SD rats by single oral administration and intravenous injection.
2. […] The mixture was stirred, vortexed and/or sonicated. Once a solution was obtained, the vehicle was gradually added to a final volume to reach the target concentration. The solution was vortexed, and sonicated to obtain a homogeneous solution.
Meanwhile, the IV group was not fasted and the PO group was fasted overnight (>12 hrs) and given food 2 hrs after drug administration. All animals had free access to water. The dosing regimen and pharmacokinetic sampling regimen are given in Table 6 and Table 7 below, respectively.
Rats were administered according to the above regimen, and blood and brain tissue samples were collected and processed at predetermined time points (collection and processing were performed according to conventional methods in the art).
The supernatant was diluted 2-fold with ultra-pure water, and the samples were analyzed by LC/MS.
Brain tissues were weighed and homogenized by adding 4-fold homogenizing solution (acetonitrile/water=1/1 v/v). […] The supernatant was diluted 2-fold with ultra-pure water, and the samples were analyzed by LC/MS.

[5] = NA: Exposure was too low to be counted
[6] = PO 10 mg/kg, NA: Exposure was too low to be counted

Chain of Ba/F3 HER2 A775_G776insYVMA cells (P04626 with tags, fused parts or gaps DUP772-775): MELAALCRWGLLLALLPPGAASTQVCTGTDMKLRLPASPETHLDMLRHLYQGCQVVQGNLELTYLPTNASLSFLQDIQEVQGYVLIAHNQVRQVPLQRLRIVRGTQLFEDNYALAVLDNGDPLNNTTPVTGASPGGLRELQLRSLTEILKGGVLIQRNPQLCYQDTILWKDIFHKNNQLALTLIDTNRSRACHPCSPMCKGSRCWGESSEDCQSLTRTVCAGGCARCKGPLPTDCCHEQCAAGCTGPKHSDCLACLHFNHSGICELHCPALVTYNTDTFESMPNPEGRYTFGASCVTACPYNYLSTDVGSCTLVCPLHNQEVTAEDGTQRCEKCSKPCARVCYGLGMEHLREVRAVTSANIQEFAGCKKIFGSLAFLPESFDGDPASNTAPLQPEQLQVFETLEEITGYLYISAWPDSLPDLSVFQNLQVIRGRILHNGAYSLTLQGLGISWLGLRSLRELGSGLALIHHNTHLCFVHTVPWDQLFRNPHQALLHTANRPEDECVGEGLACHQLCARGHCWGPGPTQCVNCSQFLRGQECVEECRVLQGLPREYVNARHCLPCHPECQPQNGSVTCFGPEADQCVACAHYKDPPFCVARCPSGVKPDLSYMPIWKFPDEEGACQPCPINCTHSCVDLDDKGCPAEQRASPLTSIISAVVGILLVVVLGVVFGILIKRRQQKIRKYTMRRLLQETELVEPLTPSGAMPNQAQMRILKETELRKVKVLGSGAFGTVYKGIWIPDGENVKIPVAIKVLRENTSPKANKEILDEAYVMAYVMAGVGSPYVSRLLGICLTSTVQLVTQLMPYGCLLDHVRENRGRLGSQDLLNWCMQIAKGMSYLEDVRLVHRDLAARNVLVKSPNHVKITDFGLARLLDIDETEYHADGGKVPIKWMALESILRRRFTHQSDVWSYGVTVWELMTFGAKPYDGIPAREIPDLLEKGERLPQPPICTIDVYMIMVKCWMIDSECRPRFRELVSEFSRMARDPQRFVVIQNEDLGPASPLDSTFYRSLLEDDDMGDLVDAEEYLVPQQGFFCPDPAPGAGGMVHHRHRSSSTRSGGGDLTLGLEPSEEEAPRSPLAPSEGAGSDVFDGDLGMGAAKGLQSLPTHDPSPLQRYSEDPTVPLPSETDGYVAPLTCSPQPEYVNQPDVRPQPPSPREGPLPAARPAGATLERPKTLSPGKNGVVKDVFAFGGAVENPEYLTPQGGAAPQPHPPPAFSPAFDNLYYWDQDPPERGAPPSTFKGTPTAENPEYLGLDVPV
T1 sequence (P04626 23-1255): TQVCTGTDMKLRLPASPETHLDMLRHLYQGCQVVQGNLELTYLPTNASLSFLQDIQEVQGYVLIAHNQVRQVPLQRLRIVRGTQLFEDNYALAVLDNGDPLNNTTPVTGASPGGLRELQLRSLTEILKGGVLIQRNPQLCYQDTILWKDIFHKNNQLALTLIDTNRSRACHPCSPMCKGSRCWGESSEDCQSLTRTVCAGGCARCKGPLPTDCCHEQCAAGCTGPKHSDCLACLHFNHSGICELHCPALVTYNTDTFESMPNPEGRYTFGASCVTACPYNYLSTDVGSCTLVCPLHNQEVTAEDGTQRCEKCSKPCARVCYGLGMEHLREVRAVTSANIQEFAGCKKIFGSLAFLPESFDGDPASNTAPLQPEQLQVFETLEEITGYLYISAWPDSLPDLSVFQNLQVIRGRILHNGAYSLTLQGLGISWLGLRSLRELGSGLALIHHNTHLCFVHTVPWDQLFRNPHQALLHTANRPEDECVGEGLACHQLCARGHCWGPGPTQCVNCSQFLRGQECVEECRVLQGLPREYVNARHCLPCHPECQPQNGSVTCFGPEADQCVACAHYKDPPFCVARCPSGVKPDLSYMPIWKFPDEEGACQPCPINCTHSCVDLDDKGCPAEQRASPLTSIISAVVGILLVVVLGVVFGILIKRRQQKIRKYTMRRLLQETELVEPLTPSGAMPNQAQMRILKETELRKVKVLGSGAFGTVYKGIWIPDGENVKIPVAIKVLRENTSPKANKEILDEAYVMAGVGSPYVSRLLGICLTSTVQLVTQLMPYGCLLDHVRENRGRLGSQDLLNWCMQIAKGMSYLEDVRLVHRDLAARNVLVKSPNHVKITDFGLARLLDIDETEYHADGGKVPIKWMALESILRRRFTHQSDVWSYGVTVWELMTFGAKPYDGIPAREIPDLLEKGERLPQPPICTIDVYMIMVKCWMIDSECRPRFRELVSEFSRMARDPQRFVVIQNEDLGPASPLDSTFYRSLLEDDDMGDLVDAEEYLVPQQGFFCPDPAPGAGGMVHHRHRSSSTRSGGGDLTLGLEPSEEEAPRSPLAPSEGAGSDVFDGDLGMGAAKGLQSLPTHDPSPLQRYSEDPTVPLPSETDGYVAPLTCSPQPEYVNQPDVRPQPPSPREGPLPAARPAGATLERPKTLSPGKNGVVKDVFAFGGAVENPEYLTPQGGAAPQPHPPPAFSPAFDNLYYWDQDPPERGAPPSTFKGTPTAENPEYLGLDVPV
Chain of EGFR^WT kinase (P00533 25-1210): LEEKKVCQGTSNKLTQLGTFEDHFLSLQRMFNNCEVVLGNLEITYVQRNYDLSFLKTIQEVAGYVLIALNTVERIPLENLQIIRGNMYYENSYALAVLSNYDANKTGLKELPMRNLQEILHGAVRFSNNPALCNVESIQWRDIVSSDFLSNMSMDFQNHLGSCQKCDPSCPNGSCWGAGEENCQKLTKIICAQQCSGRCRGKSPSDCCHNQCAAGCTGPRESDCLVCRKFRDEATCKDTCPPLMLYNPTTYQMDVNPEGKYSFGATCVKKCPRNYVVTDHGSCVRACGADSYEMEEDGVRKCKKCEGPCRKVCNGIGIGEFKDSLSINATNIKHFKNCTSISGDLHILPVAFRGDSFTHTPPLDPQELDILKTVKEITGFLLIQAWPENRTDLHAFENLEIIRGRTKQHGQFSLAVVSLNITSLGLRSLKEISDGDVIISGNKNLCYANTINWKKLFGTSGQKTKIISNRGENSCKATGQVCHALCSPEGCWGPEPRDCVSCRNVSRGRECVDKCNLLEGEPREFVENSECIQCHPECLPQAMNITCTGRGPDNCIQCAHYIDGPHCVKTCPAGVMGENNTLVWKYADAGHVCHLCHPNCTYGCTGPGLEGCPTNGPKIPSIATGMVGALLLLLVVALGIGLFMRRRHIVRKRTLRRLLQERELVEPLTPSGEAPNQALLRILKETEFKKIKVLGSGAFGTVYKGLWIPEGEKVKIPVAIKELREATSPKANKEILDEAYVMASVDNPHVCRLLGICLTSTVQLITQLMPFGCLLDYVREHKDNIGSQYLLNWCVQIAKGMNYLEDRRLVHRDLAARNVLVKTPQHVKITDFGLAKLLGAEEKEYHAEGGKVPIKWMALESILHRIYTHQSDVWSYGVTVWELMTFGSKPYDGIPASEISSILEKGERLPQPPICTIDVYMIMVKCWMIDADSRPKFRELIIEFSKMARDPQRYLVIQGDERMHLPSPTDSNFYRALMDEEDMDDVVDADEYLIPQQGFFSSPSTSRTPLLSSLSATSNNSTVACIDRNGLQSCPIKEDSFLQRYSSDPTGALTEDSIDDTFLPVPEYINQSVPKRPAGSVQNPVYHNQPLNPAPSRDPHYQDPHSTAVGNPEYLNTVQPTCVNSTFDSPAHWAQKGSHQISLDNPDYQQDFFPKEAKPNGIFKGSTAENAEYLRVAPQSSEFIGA

SMILES	IC50 (EGFR^WT kinase) [µM]	Cl_obs ([2]; IV 3 mg/kg) [mL/min/kg]	AUC(0-inf) ([2]; IV 3 mg/kg) [ng·h/mL]	AUC(0-t) ([2]; IV 3 mg/kg) [ng·h/mL]	Vd ([2]; IV 3 mg/kg) [L/kg]	half-life ([2]; IV 3 mg/kg) [h]	bioavailability [2, 5] [%]	AUC(0-inf) [2, 6] [ng·h/mL]	AUC(0-t) [2, 6] [ng·h/mL]	Cmax [2, 6] [ng/mL]	Tmax [2, 6] [h]	half-life [2, 6] [h]	IC50 (HER2 kinase) [µM]	GI50 [3] [µM]	also measured
COc1c(NC(=O)/C=C/[C@H]2CCCN2C(C)C)ccc2ncnc(Nc3ccc(OCc4ccccn4)c(Cl)c3)c12 [Example 24, (R,E)-N-(4-((3-chloro-4-(pyridin-2-ylmethoxy)phenyl)amino)-5-methoxyquinazolin-6-yl)-3-(1-isopropylpyrrolidin-2-yl)acrylamide]	0.1 to 1	32.2 ± 0.5	1550 ± 23	1510 ± 26	14 ± 1.3	5.01 ± 0.45	25 ± 11.2	1470 ± 655	1260 ± 561	86.3 ± 32.7	5.33 ± 2.89	7.81 ± 3.71	< 0.01	0.001 to 0.005	T/C (%) ([1]; QD×14, PO, day 14): 12.4%
CCCOc1c(NC(=O)/C=C/[C@H]2CCCN2C)ccc2ncnc(Nc3ccc(OCc4ccccn4)c(Cl)c3)c12 [Example 13, (R,E)-N-(4-((3-chloro-4-(pyridin-2-ylmethoxy)phenyl)amino)-5-propoxyquinazolin-6-yl)-3-(1-methylpyrrolidin-2-yl)acrylamide]	< 0.01	52.3 ± 5.7	964 ± 104	953 ± 105	18.7 ± 2.9	4.12 ± 0.22	23.3 ± 7.4	750 ± 238	719 ± 233	53.7 ± 12.4	2	5.42 ± 0.34	< 0.01	0.001 to 0.005	concentration at 2 h ([4]; whole blood, read-out: Blood drug concentration): 273 ng/mL; Kp at 2 h ([4]; brain / whole blood, read-out: Brain tissue/blood ratio): 0.465; concentration at 2 h ([4]; brain, NA: Exposure was too low to be counted, read-out: Brain tissue concentration): 127 ng/g
CN1CCC[C@@H]1/C=C/C(=O)Nc1ccc2ncnc(Nc3ccc(OCc4ccccn4)c(Cl)c3)c2c1OCC(F)F [Example 11, (R,E)-N-(4-((3-chloro-4-(pyridin-2-ylmethoxy)phenyl)amino)-5-(2,2-difluoroethoxy)quinazolin-6-yl)-3-(1-methylpyrrolidin-2-yl)acrylamide]	< 0.01	–	–	–	–	–	–	–	–	–	–	–	< 0.01	0.001 to 0.005	T/C (%) ([1]; QD×15, PO, day 15): 5.71%
[2H]C([2H])([2H])Oc1c(NC(=O)/C=C/[C@H]2CCCN2C)ccc2ncnc(Nc3ccc(OCc4ccccn4)c(Cl)c3)c12 [Example 33, (R,E)-N-(4-((3-chloro-4-(pyridin-2-ylmethoxy)phenyl)amino)-5-(methoxy-d3)quinazolin-6-yl)-3-(1-methylpyrrolidin-2-yl)acrylamide]	< 0.01	–	–	–	–	–	–	–	–	–	–	–	< 0.01	< 0.001	T/C (%) ([1]; QD×11, PO, day 11): 12.4%
CN1CCC[C@H]1/C=C/C(=O)Nc1ccc2ncnc(Nc3ccc(OCc4ccccn4)c(Cl)c3)c2c1 [Control compound 2, reference compound]	–	84.3 ± 5.1	595 ± 37	565 ± 40	47.5 ± 7.5	6.5 ± 0.78	0.992	23.8	18.7	6.72	0.25	2.39	–	–	oral absorption (in words) ([2]; administrated orally): hardly absorbed; concentration at 2 h ([4]; in vivo, whole blood, read-out: Blood drug concentration): 1.14 ng/mL
